We go through 19 molecules from patent US12497365B2, “4-pyridinyl formamide compound or derivative thereof, preparation method therefor, herbicidal composition and use thereof” (Qingdao Kingagroot Chemical Compound Co., Ltd., priority 2019, dated 2025).

Each structure is given as a SMILES string.

Common to all, as to assay: Weeding effect in post-emergence stage
Type in all cases: in vivo
Common to all, as to details: active ingredient 2000 g/ha, 3 weeks after application, fresh weight control rate

For one experiment, the system named is Chenopodium album. The procedure, abridged: (§1)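 Read-out is growth control rate based on fresh weight, assessed 3 weeks after treatment in the greenhouse. Plants were sprayed at the 2-3 leaf stage with compound dissolved in acetone, plus Tween 80 and methyl oleate emulsifiable concentrate, at doses from 125 to 2000 g/ha.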
For the next experiment, the system named is Abutilon theophrasti. The procedure, abridged: as §1
For experiment [1], the system named is Amaranthus retroflexus L. Put shortly: as §1
The subject of the next experiment is Descurainia sophia. The procedure, abridged:
as §1

`Cn1nnnc1NC(=O)c1ccnc(-c2ccc(O)cc2)c1Cl` [Compound 1-35]: in the experiment on Chenopodium album, the “Weeding effect, activity level (growth control rate), Chenopodium album” value (“Weeding effect … Chenopodium album” for short) is recorded as 5 (Level 5: growth control rate is above 85%). For the same molecule, the “Weeding effect, activity level (growth control rate), Abutilon theophrasti” value (“Weeding effect … Abutilon theophrasti” for short) in the experiment on Abutilon theophrasti is on record as 5 (Level 5: growth control rate is above 85%). For the same molecule, the “Weeding effect, activity level (growth control rate), Amaranthus retroflexus L.” value (“Weeding effect … Amaranthus retroflexus L.” below) in experiment [1] is 5 (Level 5: growth control rate is above 85%). Also, the “Weeding effect, activity level (growth control rate), Descurainia sophia” value (“Weeding effect … Descurainia sophia” below) in the experiment with Descurainia sophia is listed as 5 (Level 5: growth control rate is above 85%).

For the molecule `Cn1nnnc1NC(=O)c1ccnc(-c2ccc(OCc3ccccc3)cc2F)c1Cl` [Compound 1-106], the “Weeding effect … Chenopodium album” value in the experiment on Chenopodium album was 5 (Level 5: growth control rate is above 85%). In addition, the “Weeding effect … Abutilon theophrasti” value in the experiment with Abutilon theophrasti was 5 (Level 5: growth control rate is above 85%). The “Weeding effect … Amaranthus retroflexus L.” value in experiment [1] is reported as 5 (Level 5: growth control rate is above 85%). The “Weeding effect … Descurainia sophia” value with Descurainia sophia is listed as 5 (Level 5: growth control rate is above 85%).

On to `Cc1ccc(-c2nccc(C(=O)Nc3nnnn3C)c2Cl)cc1F` [Compound 1-68], for which the “Weeding effect … Chenopodium album” value in the experiment on Chenopodium album is 5 (Level 5: growth control rate is above 85%). Further, the “Weeding effect … Abutilon theophrasti” value in the experiment on Abutilon theophrasti is 5 (Level 5: growth control rate is above 85%). For the same molecule, the “Weeding effect … Amaranthus retroflexus L.” value in experiment [1] is listed as 5 (Level 5: growth control rate is above 85%). In addition, the “Weeding effect … Descurainia sophia” value with Descurainia sophia is listed as 5 (Level 5: growth control rate is above 85%).

In the case of `Cn1nnnc1NC(=O)c1ccnc(-c2ccccc2O)c1Cl` [Compound 1-34], the “Weeding effect … Chenopodium album” value in the experiment with Chenopodium album is reported as 5 (Level 5: growth control rate is above 85%). In the experiment with Abutilon theophrasti, the “Weeding effect … Abutilon theophrasti” value was 5 (Level 5: growth control rate is above 85%). Moreover, in experiment [1], the “Weeding effect … Amaranthus retroflexus L.” value is on record as 5 (Level 5: growth control rate is above 85%). Further, the “Weeding effect … Descurainia sophia” value in the experiment with Descurainia sophia is listed as 5 (Level 5: growth control rate is above 85%).

As for `Cn1nnnc1NC(=O)c1ccnc(-c2ccc(CBr)cc2)c1Cl` [Compound 1-24], in the experiment with Chenopodium album, the “Weeding effect … Chenopodium album” value is 5 (Level 5: growth control rate is above 85%). Moreover, the “Weeding effect … Abutilon theophrasti” value in the experiment with Abutilon theophrasti is reported as 5 (Level 5: growth control rate is above 85%). In experiment [1], the “Weeding effect … Amaranthus retroflexus L.” value was 5 (Level 5: growth control rate is above 85%). In addition, the “Weeding effect … Descurainia sophia” value in the experiment with Descurainia sophia was 5 (Level 5: growth control rate is above 85%).

For `COCc1c(C(=O)Nc2nnnn2C)ccnc1-c1ccc(F)cc1` [Compound 1-214], the “Weeding effect … Chenopodium album” value in the experiment on Chenopodium album is recorded as 5 (Level 5: growth control rate is above 85%). Besides, the “Weeding effect … Abutilon theophrasti” value in the experiment on Abutilon theophrasti is recorded as 5 (Level 5: growth control rate is above 85%). Also, in experiment [1], the “Weeding effect … Amaranthus retroflexus L.” value is given as 5 (Level 5: growth control rate is above 85%). Also, the “Weeding effect … Descurainia sophia” value in the experiment with Descurainia sophia is 5 (Level 5: growth control rate is above 85%).

For the molecule `Cn1nnnc1NC(=O)c1ccnc(-c2ccc(Cl)cc2Cl)c1Cl` [Compound 1-86], the “Weeding effect … Chenopodium album” value in the experiment with Chenopodium album is recorded as 5 (Level 5: growth control rate is above 85%). The “Weeding effect … Abutilon theophrasti” value with Abutilon theophrasti was 5 (Level 5: growth control rate is above 85%). Besides, the “Weeding effect … Amaranthus retroflexus L.” value in experiment [1] is given as 5 (Level 5: growth control rate is above 85%). Also, the “Weeding effect … Descurainia sophia” value in the experiment on Descurainia sophia is reported as 5 (Level 5: growth control rate is above 85%).

As to `CCc1c(C(=O)Nc2nnnn2C)ccnc1-c1ccc(F)cc1` [Compound 1-210], the “Weeding effect … Chenopodium album” value with Chenopodium album was 5 (Level 5: growth control rate is above 85%). In the experiment with Abutilon theophrasti, the “Weeding effect … Abutilon theophrasti” value is reported as 5 (Level 5: growth control rate is above 85%). Further, the “Weeding effect … Amaranthus retroflexus L.” value in experiment [1] is 5 (Level 5: growth control rate is above 85%). Besides, in the experiment on Descurainia sophia, the “Weeding effect … Descurainia sophia” value was 5 (Level 5: growth control rate is above 85%).

As to `Cn1nnnc1NC(=O)c1ccnc(C2=CCCCC2)c1Cl` [Compound 1-5], the “Weeding effect … Chenopodium album” value with Chenopodium album is on record as 5 (Level 5: growth control rate is above 85%). For the same molecule, the “Weeding effect … Abutilon theophrasti” value in the experiment on Abutilon theophrasti is 5 (Level 5: growth control rate is above 85%). Besides, the “Weeding effect … Amaranthus retroflexus L.” value in experiment [1] is 5 (Level 5: growth control rate is above 85%). Further, the “Weeding effect … Descurainia sophia” value in the experiment on Descurainia sophia is 5 (Level 5: growth control rate is above 85%).

For `Cc1nc(F)ccc1-c1nccc(C(=O)Nc2nnnn2C)c1Cl` [Compound 1-137], in the experiment on Chenopodium album, the “Weeding effect … Chenopodium album” value was 5 (Level 5: growth control rate is above 85%). Further, in the experiment with Abutilon theophrasti, the “Weeding effect … Abutilon theophrasti” value is reported as 5 (Level 5: growth control rate is above 85%). In addition, the “Weeding effect … Amaranthus retroflexus L.” value in experiment [1] is listed as 5 (Level 5: growth control rate is above 85%). Also, the “Weeding effect … Descurainia sophia” value with Descurainia sophia is reported as 5 (Level 5: growth control rate is above 85%).

Consider `Cn1nnnc1NC(=O)c1ccnc(-c2ccc(F)cc2C(F)(F)F)c1Cl` [Compound 1-73], for which, in the experiment with Chenopodium album, the “Weeding effect … Chenopodium album” value was 5 (Level 5: growth control rate is above 85%). Moreover, the “Weeding effect … Abutilon theophrasti” value in the experiment on Abutilon theophrasti is 5 (Level 5: growth control rate is above 85%). Further, the “Weeding effect … Amaranthus retroflexus L.” value in experiment [1] is 5 (Level 5: growth control rate is above 85%). Besides, the “Weeding effect … Descurainia sophia” value with Descurainia sophia is 5 (Level 5: growth control rate is above 85%).

Turning to `CSc1ccccc1-c1nccc(C(=O)Nc2nnnn2C)c1Cl` [Compound 1-42], the “Weeding effect … Chenopodium album” value in the experiment with Chenopodium album is recorded as 5 (Level 5: growth control rate is above 85%). Further, the “Weeding effect … Abutilon theophrasti” value in the experiment on Abutilon theophrasti was 5 (Level 5: growth control rate is above 85%). Moreover, in experiment [1], the “Weeding effect … Amaranthus retroflexus L.” value is 5 (Level 5: growth control rate is above 85%). In addition, in the experiment with Descurainia sophia, the “Weeding effect … Descurainia sophia” value is 5 (Level 5: growth control rate is above 85%).

On to `Cn1nnnc1NC(=O)c1ccnc(-c2ccc(Cl)cc2F)c1Cl` [Compound 1-95], for which, in the experiment on Chenopodium album, the “Weeding effect … Chenopodium album” value is 5 (Level 5: growth control rate is above 85%). Also, the “Weeding effect … Abutilon theophrasti” value in the experiment on Abutilon theophrasti is on record as 5 (Level 5: growth control rate is above 85%). The “Weeding effect … Amaranthus retroflexus L.” value in experiment [1] is listed as 5 (Level 5: growth control rate is above 85%). For the same molecule, the “Weeding effect … Descurainia sophia” value in the experiment with Descurainia sophia was 5 (Level 5: growth control rate is above 85%).

As to `Cn1nnnc1NC(=O)c1ccnc(-c2cccnc2F)c1Cl` [Compound 1-127], in the experiment with Chenopodium album, the “Weeding effect … Chenopodium album” value is given as 5 (Level 5: growth control rate is above 85%). Also, the “Weeding effect … Abutilon theophrasti” value in the experiment with Abutilon theophrasti is listed as 5 (Level 5: growth control rate is above 85%). Further, the “Weeding effect … Amaranthus retroflexus L.” value in experiment [1] is 5 (Level 5: growth control rate is above 85%). In addition, the “Weeding effect … Descurainia sophia” value in the experiment with Descurainia sophia is given as 5 (Level 5: growth control rate is above 85%).

On to `COC(=O)c1cc(-c2nccc(C(=O)Nc3nnnn3C)c2Cl)ccc1Cl` [Compound 1-98], for which the “Weeding effect … Chenopodium album” value in the experiment with Chenopodium album was 5 (Level 5: growth control rate is above 85%). Moreover, the “Weeding effect … Abutilon theophrasti” value in the experiment on Abutilon theophrasti is listed as 5 (Level 5: growth control rate is above 85%). Moreover, the “Weeding effect … Amaranthus retroflexus L.” value in experiment [1] was 5 (Level 5: growth control rate is above 85%). For the same molecule, the “Weeding effect … Descurainia sophia” value with Descurainia sophia was 5 (Level 5: growth control rate is above 85%).

With `Cn1nnnc1NC(=O)c1ccnc(-c2ccc(Cl)c(Cl)c2)c1Cl` [Compound 1-88], the “Weeding effect … Chenopodium album” value with Chenopodium album is recorded as 5 (Level 5: growth control rate is above 85%). The “Weeding effect … Abutilon theophrasti” value in the experiment with Abutilon theophrasti is on record as 5 (Level 5: growth control rate is above 85%). The “Weeding effect … Amaranthus retroflexus L.” value in experiment [1] is recorded as 5 (Level 5: growth control rate is above 85%). In addition, the “Weeding effect … Descurainia sophia” value in the experiment on Descurainia sophia is 5 (Level 5: growth control rate is above 85%).

As to `Cn1nnnc1NC(=O)c1ccnc(-c2ccc(F)nc2)c1Cl` [Compound 1-132], the “Weeding effect … Chenopodium album” value in the experiment with Chenopodium album is on record as 5 (Level 5: growth control rate is above 85%). For the same molecule, the “Weeding effect … Abutilon theophrasti” value in the experiment with Abutilon theophrasti is reported as 5 (Level 5: growth control rate is above 85%). Also, in experiment [1], the “Weeding effect … Amaranthus retroflexus L.” value is recorded as 5 (Level 5: growth control rate is above 85%). For the same molecule, the “Weeding effect … Descurainia sophia” value with Descurainia sophia is reported as 5 (Level 5: growth control rate is above 85%).

As for `Cn1nnnc1NC(=O)c1ccnc(C2=CCOCC2)c1Cl` [Compound 1-7], in the experiment with Chenopodium album, the “Weeding effect … Chenopodium album” value is 5 (Level 5: growth control rate is above 85%). In addition, the “Weeding effect … Abutilon theophrasti” value in the experiment on Abutilon theophrasti is recorded as 5 (Level 5: growth control rate is above 85%). The “Weeding effect … Amaranthus retroflexus L.” value in experiment [1] was 5 (Level 5: growth control rate is above 85%). Besides, the “Weeding effect … Descurainia sophia” value in the experiment with Descurainia sophia is on record as 5 (Level 5: growth control rate is above 85%).

On to `Cn1nnnc1NC(=O)c1ccnc(-c2cc(C(C)(C)C)cc(C(C)(C)C)c2)c1Cl` [Compound 1-61], for which the “Weeding effect … Chenopodium album” value in the experiment on Chenopodium album is given as 5 (Level 5: growth control rate is above 85%). Moreover, in the experiment on Abutilon theophrasti, the “Weeding effect … Abutilon theophrasti” value was 5 (Level 5: growth control rate is above 85%). The “Weeding effect … Amaranthus retroflexus L.” value in experiment [1] is recorded as 5 (Level 5: growth control rate is above 85%). The “Weeding effect … Descurainia sophia” value in the experiment on Descurainia sophia was 5 (Level 5: growth control rate is above 85%).
